Source: publication doi:10.1101/2020.02.18.954917v1 (biorxiv, 2020)

Key:
[1] = target: T1, Them1 StarD (Them1 START domain) (Homo sapiens, UniProt Q8WXI4); assay: differential scanning fluorimetry, SYPRO orange; format: binding; settings: 10 μM protein, 50 μM ligand, 2% ethanol
T1 sequence (Q8WXI4 339-594 isoform Q8WXI4-2): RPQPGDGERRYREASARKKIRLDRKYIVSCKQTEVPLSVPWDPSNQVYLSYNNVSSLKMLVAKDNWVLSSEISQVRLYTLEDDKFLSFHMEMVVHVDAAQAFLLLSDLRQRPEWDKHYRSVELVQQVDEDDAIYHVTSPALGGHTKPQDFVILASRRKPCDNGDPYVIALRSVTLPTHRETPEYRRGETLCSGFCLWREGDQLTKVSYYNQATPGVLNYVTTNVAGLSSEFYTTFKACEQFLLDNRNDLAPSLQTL

[2] = target: T1, Them1 StarD (Them1 START domain); assay: microscale thermophoresis, RED-tris-NTA labelled His-tagged StarD; format: binding

With `CCCCCCCC/C=C\CCCCCCCC(=O)OC[C@@H](O)COP(=O)([O-])OCC[N+](C)(C)C` [18:1 LPC] the Tm decrease [1] was ~ 5 °C.
Work on `CCCCCCCCCCCCCC(=O)O` [myristic acid] yielded a Kd [2] of 70.8 µM.
`CCCCCCCCCCCCCCCC(=O)O` [palmitic acid] was tested, and the Kd [2] was 45.9 µM.
Compound `CCCCCCCCCCCCCCCCCC(=O)O` [stearic acid] has a Kd [2] of 9.5 µM.
